In general, NOAEL refers to the highest tested level that showed no adverse finding. A word on the LC50: it is the concentration that kills 50% of the test population.

A value given as a limit tells only on which side of the number the result lay.

For one data set, the system named is Mus musculus. As to conditions: acute; mortality.
Another data set has as its system Folsomia candida. As to conditions: chronic/long-term; duration: 28 days; reproduction.
In the next data set the test system is Hypoaspis aculeifer. As to conditions: chronic/long-term; duration: 14 days; reproduction.
The subject of another data set is Tagia sp. Conditions: chronic/long-term; duration: 56 days; reproduction.
The test system of the next data set is Aphidius rhopalosiphi. Nature of the data set: LR50; higher = less toxic. Conditions: not reported; mortality.
The next data set concerns Apis mellifera. As to conditions: acute, mortality.
Another data set has as its system Pimephales promelas. Conditions: chronic/long-term; duration: 262 days; growth.
The conditions of data set [1]: chronic.
A further data set concerns Colinus virginianus. Conditions: oral.
The test system of another data set is Anas platyrhynchos. As to conditions: reproductive.
A further data set concerns Cyprinodon variegatus. Conditions: acute; duration: 96 hours; mortality.
A further data set deals with Daphnia magna. As to conditions: chronic/long-term; duration: 21 days; reproduction.
For a further data set, the system named is Bibionidae. As to conditions: chronic/long-term; duration: 28 days.
For a further data set, the system named is Canidae. Conditions: oral, Dog Other, organ weight.

Compound `Cc1cc(C)cc(C(=O)N(NC(=O)c2cccc(O)c2C)C(C)(C)C)c1` registered an LD50 in the data set on Mus musculus greater than 5000 mg/kg.
For the compound `COc1cccc(C(=O)NN(C(=O)c2cc(C)cc(C(=O)O)c2)C(C)(C)C)c1C`, the NOEC in the data set with Folsomia candida was found to be 20 mg/kg; with Hypoaspis aculeifer, 1000 mg/kg; in the data set with Tagia sp., 20 mg/kg.
For `COc1cccc(C(=O)NN(C(=O)c2cc(C)cc(C)c2)C(C)(C)C)c1C` [Methoxyfenozide], the LR50 in the data set on Aphidius rhopalosiphi was greater than 192 g/ha. The LD50 is greater than 100 µg/piece in the data set on Apis mellifera (duration: 48 hours, dermal); greater than 2000 µg/piece in the data set on Apis mellifera (duration: 72 hours, oral, unspecified); greater than 2250 mg/kg-day in the data set on Colinus virginianus (acute, mortality); greater than 5000 mg/kg in the data set on Rattus norvegicus (acute, oral, mortality); greater than 5000 mg/kg with Mus musculus. Also, the NOEC was 0.53 mg/L in the data set on Pimephales promelas; 0.01 mg/L in data set [1]; greater than 82.7 mg/kg-day with Colinus virginianus (reproduction developmental, diet); 20.5 mg/kg in the data set on Folsomia candida; 0.39 mg/L with Daphnia magna; 0.0065 mg/L in the data set on Bibionidae. In the data set with Tagia sp., this compound came in with an NOEC of 2.04 mg/kg. The NOAEL in the data set with Rattus norvegicus (chronic, duration: 2 years, organ weight) is 10.2 mg/kg-day; with Rattus norvegicus (reproduction developmental, M, body weight) it was 153 mg/kg-day; with Canidae (chronic, duration: 1 years), 9.8 mg/kg-day; with Canidae (short-term, duration: 2 weeks), 18 mg/kg-day. In the data set with Anas platyrhynchos, this compound returned an NOEL of 138 mg/kg-day. The compound also had a median lethal concentration (LC50) with Cyprinodon variegatus greater than 2.8 µg/mL.
